What was measured:
[1] = target: Cathepsin D (Cat D) (Homo sapiens (Human), UniProt P07339); experiment: In vitro enzymatic Cathepsin D (Cat D) FRET assay; format: biochemical; details: read-out: CatD IC50
[2] = target: Beta Secretase enzyme (BACE) (Homo sapiens (Human), UniProt P56817); experiment: In vitro enzymatic BACE FRET assay; format: biochemical; details: read-out: BACE1 Enzyme assay IC50
Chain of Beta Secretase enzyme (BACE) (P56817 46-501): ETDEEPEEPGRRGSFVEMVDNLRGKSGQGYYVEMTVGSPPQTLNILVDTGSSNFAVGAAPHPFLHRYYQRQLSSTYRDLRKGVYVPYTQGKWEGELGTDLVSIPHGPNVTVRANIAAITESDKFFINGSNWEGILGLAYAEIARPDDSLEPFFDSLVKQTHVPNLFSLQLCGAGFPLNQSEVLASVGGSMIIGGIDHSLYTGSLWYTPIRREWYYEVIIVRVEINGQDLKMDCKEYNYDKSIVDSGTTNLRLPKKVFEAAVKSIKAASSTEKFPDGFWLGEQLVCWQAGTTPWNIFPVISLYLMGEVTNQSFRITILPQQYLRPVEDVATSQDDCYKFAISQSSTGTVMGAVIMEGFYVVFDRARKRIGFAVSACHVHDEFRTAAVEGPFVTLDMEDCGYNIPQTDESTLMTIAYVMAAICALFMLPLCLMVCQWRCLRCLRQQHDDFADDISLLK

Chain of Cathepsin D (Cat D) (P07339 65-412, species assumed): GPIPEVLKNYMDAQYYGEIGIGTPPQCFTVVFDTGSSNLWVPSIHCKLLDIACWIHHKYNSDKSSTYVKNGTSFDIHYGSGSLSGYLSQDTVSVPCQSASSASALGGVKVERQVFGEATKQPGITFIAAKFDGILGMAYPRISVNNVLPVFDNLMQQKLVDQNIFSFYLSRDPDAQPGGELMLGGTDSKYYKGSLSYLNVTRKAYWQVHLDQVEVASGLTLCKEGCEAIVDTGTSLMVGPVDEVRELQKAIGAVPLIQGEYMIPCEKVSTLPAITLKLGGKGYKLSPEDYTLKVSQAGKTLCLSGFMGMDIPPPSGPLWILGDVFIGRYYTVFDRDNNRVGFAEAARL

IC50 [1]	IC50 [2]	SMILES
592 µM	0.396 µM	NC1=N[C@](CF)(c2cccc(NC(=O)c3ccc(Cl)cn3)c2)[C@H]2C[C@H]2O1 (racemic) [Example 423, N-(3-(((1R,S),(5S,R),(6R,S))-3-amino-5-(fluoromethyl)-2-oxa-4-azabicyclo[4.1.0]hept-3-en-5-yl)phenyl)-5-chloropicolinamide]
493 µM	0.701 µM	C#CCOc1cnc(C(=O)Nc2ccc(Cl)c([C@]3(C(F)F)N=C(N)O[C@H]4C[C@H]43)c2)cn1 [Example 222, N-(3-((1S,5R,6S)-3-amino-5-(difluoromethyl)-2-oxa-4-azabicyclo[4.1.0]hept-3-en-5-yl)-4-chlorophenyl)-5-(prop-2-yn-1-yloxy)pyrazine-2-carboxamide]
1060 µM	0.525 µM	NC1=N[C@@](c2cccc(NC(=O)c3ccc(Cl)cn3)c2)(C(F)F)[C@H]2C[C@H]2O1 [Example 263, N-(3-([(1R,S),(5S,R),(6R,S)]-3-amino-5-(difluoromethyl)-2-oxa-4-azabicyclo[4.1.0]hept-3-en-5-yl)phenyl)-5-chloropicolinamide]
397 µM	0.265 µM	NC1=N[C@@](c2cccc(NC(=O)c3ccc(Cl)cn3)c2)(C(F)F)[C@H]2C[C@H]2O1 [Example 265, N-(3-((1R,5S,6R)-3-amino-5-(difluoromethyl)-2-oxa-4-azabicyclo[4.1.0]hept-3-en-5-yl)phenyl)-5-chloropicolinamide]
> 400 µM	24.1 µM	NC1=N[C@@](CF)(c2cc(NC(=O)c3ccc(Cl)cn3)ccc2Cl)[C@@H]2C[C@@H]2O1 [Example 271]
918 µM	0.138 µM	NC1=N[C@@](CF)(c2cc(NC(=O)c3ccc(Cl)cn3)ccc2Cl)[C@@H]2CC2O1 (stereo partly drawn) [Example 276, N-(3-(((1R,S), (5S,R), (6R,S))-3-amino-5-(fluoromethyl)-2-oxa-4-azabicyclo[4.1.0]hept-3-en-5-yl)-4-chlorophenyl)-5-chloropicolinamide]
> 400 µM	14.1 µM	C[C@@]1(c2cc(NC(=O)c3ccc(Cl)cn3)cnc2F)N=C(N)O[C@H]2C[C@H]21 [Example 335, N-(5-((1S,5R,6S)-3-amino-5-methyl-2-oxa-4-azabicyclo[4.1.0]hept-3-en-5-yl)-6-fluoropyridin-3-yl)-5-chloropicolinamide]

Continued, compound first:

SMILES	IC50 [1]	IC50 [2]
NC1=N[C@@](c2cc(N[C@@H]3CCc4cc(Br)cnc43)ccc2F)(C(F)F)[C@H]2C[C@H]2O1 (single isomer, unassigned) [Example 380, (1R,5S,6R)-5-(5-(((R)-3-bromo-6,7-dihydro-5H-cyclopenta[b]pyridin-7-yl)amino)-2-fluorophenyl)-5-(difluoromethyl)-2-oxa-4-azabicyclo[4.1.0]hept-3-en-3-amine or (1R,5S,6R)-5-(5-(((S)-3-bromo-6,7-dihydro-5H-cyclopenta[b]pyridin-7-yl)amino)-2-fluorophenyl)-5-(difluoromethyl)-2-oxa-4-azabicyclo[4.1.0]hept-3-en-3-amine]	336 µM	0.143 µM
NC1=N[C@@](c2cc(N[C@H]3CCc4cc(Br)cnc43)ccc2F)(C(F)F)[C@H]2C[C@H]2O1 (single isomer, unassigned) [Example 381, (1R,5S,6R)-5-(5-(((S)-3-bromo-6,7-dihydro-5H-cyclopenta[b]pyridin-7-yl)amino)-2-fluorophenyl)-5-(difluoromethyl)-2-oxa-4-azabicyclo[4.1.0]hept-3-en-3-amine or (1R,5S,6R)-5-(5-(((R)-3-bromo-6,7-dihydro-5H-cyclopenta[b]pyridin-7-yl)amino)-2-fluorophenyl)-5-(difluoromethyl)-2-oxa-4-azabicyclo[4.1.0]hept-3-en-3-amine]	83.3 µM	3.45 µM
C#CCOc1cnc(C(=O)Nc2cc(F)c(F)c([C@@]3(C(F)F)N=C(N)O[C@@H]4C[C@@H]43)c2)cn1 [Example 111, N-(3-((1R,5S,6R)-3-amino-5-(difluoromethyl)-2-oxa-4-azabicyclo[4.1.0]hept-3-en-5-yl)-4,5-difluorophenyl)-5-(prop-2-yn-1-yloxy)pyrazine-2-carboxamide]	1000 µM	6.5 µM
C#CCOc1cnc(C(=O)Nc2cc(F)c(F)c([C@@]3(C(F)F)N=C(N)O[C@@H]4C[C@@H]43)c2)cn1 [Example 115, N-(3-((1R,5S,6R)-3-amino-5-(difluoromethyl)-2-oxa-4-azabicyclo[4.1.0]hept-3-en-5-yl)-4,5-difluorophenyl)-5-(prop-2-yn-1-yloxy)pyrazine-2-carboxamide]	42.5 µM	0.0021 µM
Cc1cc(C#N)cnc1C(=O)Nc1cc(F)c(Cl)c([C@]2(CF)N=C(N)O[C@H]3C[C@H]32)c1 [Example 139, N-(3-((1 S,5R,6S)-3-amino-5-(fluoromethyl)-2-oxa-4-azabicyclo[4.1.0]hept-3-en-5-yl)-4-chloro-5-fluorophenyl)-5-cyano-3-methylpicolinamide]	646 µM	14.2 µM
CC#CCOc1cnc(C(=O)Nc2ccc(Cl)c([C@]3(C(F)F)N=C(N)O[C@H]4C[C@H]43)c2)cn1 [Example 216, N-(3-((1S,5R,6S)-3-amino-5-(difluoromethyl)-2-oxa-4-azabicyclo[4.1.0]hept-3-en-5-yl)-4-chlorophenyl)-5-(but-2-yn-1-yloxy)pyrazine-2-carboxamide]	500 µM	0.838 µM
NC1=N[C@](c2cc(NC(=O)c3nn(C(F)F)cc3Cl)ccc2Cl)(C(F)F)[C@@H]2C[C@@H]2O1 [Example 225, N-(3-((1S,5R,6S)-3-amino-5-(difluoromethyl)-2-oxa-4-azabicyclo[4.1.0]hept-3-en-5-yl)-4-chlorophenyl)-4-chloro-1-(difluoromethyl)-1H-pyrazole-3-carboxamide]	1340 µM	8.27 µM
C[C@@]1(c2nc(NC(=O)c3ccc(C#N)cn3)ccc2F)N=C(N)O[C@H]2C[C@H]21 [Example 325, N-(6-((1S,5R,6S)-3-amino-5-methyl-2-oxa-4-azabicyclo[4.1.0]hept-3-en-5-yl)-5-fluoropyridin-2-yl)-5-cyanopicolinamide]	1290 µM	> 40 µM
COc1cnc2c(Nc3ccc(F)c([C@@]4(C)N=C(N)O[C@H]5C[C@H]54)c3)nccc2c1 [Example 337, (1S,5S,6S)-5-(2-fluoro-5-((3-methoxy-1,7-naphthyridin-8-yl)amino)phenyl)-5-methyl-2-oxa-4-azabicyclo[4.1.0]hept-3-en-3-amine]	> 400 µM	3.35 µM
COc1cnc2c(Nc3ccc(F)c([C@]4(C)N=C(N)O[C@@H]5C[C@@H]54)c3)nccc2c1 [Example 338, (1R,5R,6R)-5-(2-fluoro-5-((3-methoxy-1,7-naphthyridin-8-yl)amino)phenyl)-5-methyl-2-oxa-4-azabicyclo[4.1.0]hept-3-en-3-amine]	56.6 µM	> 40 µM
COc1cnc2c(Nc3ccc(F)c([C@]4(C)N=C(N)O[C@H]5C[C@H]54)c3)nccc2c1 [Example 339]	> 400 µM	8.11 µM
N#Cc1cnc2c(Nc3ccc(Cl)c([C@]4(C(F)F)N=C(N)O[C@H]5C[C@H]54)c3)ncc(F)c2c1 [Example 349, 8-((3-((1(R,S),5(S,R),6(R,S))-3-amino-5-(difluoromethyl)-2-oxa-4-azabicyclo[4.1.0]hept-3-en-5-yl)-4-chlorophenyl)amino)-5-fluoro-1,7-naphthyridine-3-carbonitrile]	88.4 µM	0.0829 µM

— patent publication US9085576B2 (AMGEN INC., priority 2013, dated 2015)
